The values below come from ChEMBL document CHEMBL1140032, “Furoxan-, alkylnitrate-derivatives and related compounds as anti-trypanosomatid agents: mechanism of action studies” (2008).

The subject of one assay is Trypanosoma cruzi. In words: Antitrypanosomal activity against Trypanosoma cruzi Y assessed as parasite viability after 5 days by MTT assay. The note with it: 120 h, read-out: ID50 (the source's name). The class given is functional. A general note: Tetrazolium assays rely on reduction of a dye to a coloured formazan, in cell work by metabolically active cells.
In the case of `NC(=O)CSc1c(-c2ccccc2)no[n+]1[O-]`, the IC50 was over 50 µM.

With `CC1CS(=O)(=O)CCN1/N=C/c1ccc([N+](=O)[O-])o1` (stereo not given) [NIFURTIMOX], the IC50 is 9.7 µM.

Another assay concerns Leishmania braziliensis. The assay can be described thus: Antileishmanial activity against Leishmania braziliensis MHOM/BR/00/LTB300 assessed as parasite viability after 5 days by MTT assay. The class given is functional. The note with it: 120 h, read-out: ID50 (the source's name).
Turning to `NC(=O)CSc1c(-c2ccccc2)no[n+]1[O-]`, the IC50 was over 50 µM.

The next assay deals with Leishmania pifanoi. The assay can be described thus: Antileishmanial activity against Leishmania pifanoi MHOM/VE/57/LV135 assessed as parasite viability after 5 days by MTT assay. It is filed as functional. Particulars: 120 h, read-out: ID50 (the source's name).
For `NC(=O)CSc1c(-c2ccccc2)no[n+]1[O-]`, the IC50 was over 50 µM. Consider `O=C(Cn1ccnc1[N+](=O)[O-])NCc1ccccc1` [BENZNIDAZOLE], for which the IC50 came to 3.8 µM.

The test system of a further assay is Trypanosoma cruzi. In words: Antitrypanosomal activity against Trypanosoma cruzi Tulahuen 2 assessed as inhibition of epimastigotes growth after 5 days by MTT assay relative to control. It is filed as functional. The note with it: Tulahuen 2, 120 h, read-out: ID50 (the source's name).
For the compound `Nc1no[n+]([O-])c1-c1ccccc1`, the IC50 is 25 µM. For the compound `CCOc1no[n+]([O-])c1S(=O)(=O)c1ccccc1`, the IC50 is 7.5 µM.

For the compound `CCOc1no[n+]([O-])c1-c1ccccc1`, the IC50 was 7.5 µM. On the same count and under the same terms, the value for `O=S(=O)(c1ccccc1)c1nonc1S(=O)(=O)c1ccccc1` was 2 µM; that for `O=S(=O)(CCO)c1no[n+]([O-])c1-c1ccccc1` was 25 µM. The same measure, in the same setting: the value for `Cc1ncc([N+](=O)[O-])n1CCOc1no[n+]([O-])c1S(=O)(=O)c1ccccc1` was 5 µM; that for `CC1CS(=O)(=O)CCN1/N=C/c1ccc([N+](=O)[O-])o1` (stereo not given) [NIFURTIMOX] was 7.7 µM. For `Cc1ncc([N+](=O)[O-])n1CCOc1nonc1-c1ccccc1`, the IC50 came to 5 µM. `CCOC(=O)COc1no[n+]([O-])c1S(=O)(=O)c1ccccc1`: the IC50 is 7.5 µM. In the case of `O=C(Cn1ccnc1[N+](=O)[O-])NCc1ccccc1` [BENZNIDAZOLE], the IC50 came to 4.5 µM.

For the compound `[O-][n+]1onc(-c2ccccc2)c1Br`, the IC50 was 5 µM.

For `CCCCCCNC(=O)N/N=C/c1c(-c2ccccc2)no[n+]1[O-]`, the IC50 stood at 25 µM. Same read-out and setting: the value for `O=S(=O)(c1ccccc1)c1no[n+]([O-])c1S(=O)(=O)c1ccccc1` was 3.5 µM; that for `O=S(=O)(CCO)c1c(-c2ccccc2)no[n+]1[O-]` was 7.5 µM; that for `Cc1ncc([N+](=O)[O-])n1CCOc1nonc1S(=O)(=O)c1ccccc1` was 19 µM.

Regarding `Cc1ncc([N+](=O)[O-])n1CCOc1no[n+]([O-])c1-c1ccccc1`, the IC50 turned out to be 4 µM.

As to `[O-][n+]1onc(Br)c1-c1ccccc1`, the IC50 turned out to be 13 µM. The same measure, in the same setting: the value for `CCOc1c(-c2ccccc2)no[n+]1[O-]` was 18 µM; that for `O=S(=O)(c1ccccc1)c1c(OCCCO)no[n+]1[O-]` was 7.5 µM; that for `CN(C)CCCOc1no[n+]([O-])c1S(=O)(=O)c1ccccc1` was 3 µM. Same read-out and setting: the value for `CN(C)C(=O)CS(=O)(=O)c1c(-c2ccccc2)no[n+]1[O-]` was 7.5 µM.

Another assay relates to Trypanosoma cruzi. In words: Antitrypanosomal activity against Trypanosoma cruzi Tulahuen 2 assessed as inhibition of growth of epimastigotes at 25 uM after 5 days by MTT assay relative to control. The class given is functional. Particulars: Tulahuen 2, 120 h, read-out: GI.
On to `Cc1no[n+]([O-])c1-c1ccc(C(=O)O)cc1`, for which the inhibition of growth at 25 µM worked out at 38%. The same measure, in the same setting: the value for `CS(=O)(=O)CCOc1nonc1-c1ccccc1` was 4%. On the same count and under the same terms, the value for `[O-][n+]1onc(CO)c1/C=N/O` was 2%. On the same count and under the same terms, the value for `Cc1c(CNC(c2c[nH]cn2)C2CCNCC2)no[n+]1[O-]` (stereo not given) was 0%; that for `O=C(O)c1ccc(OCC(CO[N+](=O)[O-])O[N+](=O)[O-])cc1` (stereo not given) was 0%; that for `CN(C)Cc1no[n+]([O-])c1C#N` was 5%. On to `NC(=O)c1nonc1CN1CCC(Cc2c[nH]cn2)CC1`, for which the inhibition of growth at 25 µM was determined as 0%. As for `NC(=O)c1nonc1CO`, the inhibition of growth at 25 µM is 0%. Turning to `CN(C)Cc1no[n+]([O-])c1C(N)=O`, the inhibition of growth at 25 µM was 11%. Same read-out and setting: the value for `COC(=O)CSc1c(S(=O)(=O)c2ccccc2)no[n+]1[O-]` was 22%; that for `Cc1c(/C=N/O)no[n+]1[O-]` was 32%; that for `Cc1nonc1CNC(c1c[nH]cn1)C1CCNCC1` (stereo not given) was 2%. With `c1ccc(-c2nonc2SC2CCNCC2)cc1`, the inhibition of growth at 25 µM is 34%.

For `NC(=O)c1c(CN2CCCCC2)no[n+]1[O-]`, the inhibition of growth at 25 µM was determined as 4%. As to `N#Cc1nonc1-c1ccccc1`, the inhibition of growth at 25 µM worked out at 2%. On the same count and under the same terms, the value for `NC(=O)CSc1c(-c2ccccc2)no[n+]1[O-]` was 19%. For `CN(C)Cc1nonc1C(N)=O`, the inhibition of growth at 25 µM stood at 0%.

On to `CCOc1nonc1S(=O)(=O)c1ccccc1`, for which the inhibition of growth at 25 µM is 25%. Same read-out and setting: the value for `NC(=O)c1c(CO)no[n+]1[O-]` was 0%; that for `Cc1nonc1CNCCn1c([N+](=O)[O-])cnc1C` was 18%.

Take `O=C(O)CSc1nonc1-c1ccccc1`: the inhibition of growth at 25 µM stood at 31%. Still for that read-out and setting: the value for `N#Cc1nonc1CN1CCC(Cc2c[nH]cn2)CC1` was 0%; that for `COc1cc(CN2CCN(c3ccc(CC(CO[N+](=O)[O-])O[N+](=O)[O-])cc3)CC2)cc(OC)c1OC` (stereo not given) was 3%; that for `CN(C)CCCOc1nonc1-c1ccccc1` was 0%. Still for that read-out and setting: the value for `CCNCCCO[N+](=O)[O-]` was 0%; that for `[O-][n+]1onc(SC2CCNCC2)c1-c1ccccc1` was 32%. Still for that read-out and setting: the value for `NC(=O)c1c(-c2ccccc2)no[n+]1[O-]` was 35%.

Regarding `Cc1ncc([N+](=O)[O-])n1CCNCc1nonc1C#N`, the inhibition of growth at 25 µM came out at 23%.

With `O=C(O)COc1no[n+]([O-])c1S(=O)(=O)c1ccccc1`, the inhibition of growth at 25 µM was found to be 35%. On to `O=C(O)c1ccc(CC(CO[N+](=O)[O-])O[N+](=O)[O-])cc1` (stereo not given), for which the inhibition of growth at 25 µM came to 0%.

Regarding `CS(=O)(=O)CCOc1no[n+]([O-])c1-c1ccccc1`, the inhibition of growth at 25 µM stood at 11%.

Take `Cc1nonc1CN(C)C`: the inhibition of growth at 25 µM was found to be 0%. On the same count and under the same terms, the value for `Cc1nonc1-c1ccc(C(=O)O)cc1` was 32%. Same read-out and setting: the value for `O=C(O)CSc1c(S(=O)(=O)c2ccccc2)no[n+]1[O-]` was 0%; that for `[O-][n+]1onc(/C=N/O)c1CO` was 3%. Same read-out and setting: the value for `Cc1ncc([N+](=O)[O-])n1CCNCc1no[n+]([O-])c1C` was 17%; that for `CCOCC.NC(=O)c1nonc1CNC(c1c[nH]cn1)C1CCNCC1` (stereo not given) was 0%; that for `N#Cc1c(CNC(c2c[nH]cn2)C2CCNCC2)no[n+]1[O-]` (stereo not given) was 7%. In the case of `O=C(O)CSc1no[n+]([O-])c1-c1ccccc1`, the inhibition of growth at 25 µM was 4%. Regarding `Cc1c(-c2ccc(C(=O)O)cc2)no[n+]1[O-]`, the inhibition of growth at 25 µM was 34%. For `NC(=O)c1c(CN2CCC(Cc3c[nH]cn3)CC2)no[n+]1[O-]`, the inhibition of growth at 25 µM stood at 6%. The same measure, in the same setting: the value for `Nc1no[n+]([O-])c1C(=O)N1CCCCC1` was 17%; that for `CN(C)Cc1nonc1C#N` was 13%; that for `O=S(=O)(c1ccccc1)c1nonc1-c1c[nH]cn1` was 12%.

For `Cc1nonc1-c1nc(S)n[nH]1`, the inhibition of growth at 25 µM stood at 32%. Same read-out and setting: the value for `Cc1ncc([N+](=O)[O-])n1CCOCC[N+](=O)[O-]` was 13%. The same measure, in the same setting: the value for `O=Cc1ccc(CC(CO[N+](=O)[O-])O[N+](=O)[O-])cc1` (stereo not given) was 0%; that for `Cc1c(-c2nc(S)n[nH]2)no[n+]1[O-]` was 29%; that for `NC(=O)c1nonc1CN1CCCCC1` was 3%. As to `NC(=O)c1no[n+]([O-])c1-c1ccccc1`, the inhibition of growth at 25 µM was 10%. Still for that read-out and setting: the value for `N#Cc1no[n+]([O-])c1-c1ccccc1` was 15%; that for `CN(C)CCCOc1nonc1-c1c[nH]cn1` was 3%; that for `Cc1no[n+]([O-])c1/C=N/O` was 17%.

As for `Cc1ncc([N+](=O)[O-])n1CCNCc1no[n+]([O-])c1C#N`, the inhibition of growth at 25 µM is 5%. For the compound `COC(=O)CSc1no[n+]([O-])c1-c1ccccc1`, the inhibition of growth at 25 µM is 15%. As for `Nc1nonc1-c1ccccc1`, the inhibition of growth at 25 µM was 45%. Consider `Cc1nonc1-c1nc2ccccc2s1`, for which the inhibition of growth at 25 µM came out at 22%. In the case of `N#Cc1c(CN2CCC(Cc3c[nH]cn3)CC2)no[n+]1[O-]`, the inhibition of growth at 25 µM stood at 9%. Take `Cc1no[n+]([O-])c1C(=O)NNC(N)=S`: the inhibition of growth at 25 µM amounted to 10%.

Regarding `Cc1nonc1-c1nc2ccccc2o1`, the inhibition of growth at 25 µM turned out to be 15%. Regarding `CCOc1nonc1-c1ccccc1`, the inhibition of growth at 25 µM was found to be 35%. Still for that read-out and setting: the value for `CN(C)CCCOc1nonc1S(=O)(=O)c1ccccc1` was 15%; that for `[O-][n+]1onc(-c2ccccc2)c1SC1CCNCC1` was 35%. For `O=Cc1ccc(OCC(CO[N+](=O)[O-])O[N+](=O)[O-])cc1` (stereo not given), the inhibition of growth at 25 µM stood at 1%. The same measure, in the same setting: the value for `Cc1no[n+]([O-])c1-c1nc(S)n[nH]1` was 40%; that for `Cc1nonc1CN1CCC(Cc2c[nH]cn2)CC1` was 21%. In the case of `Cc1nonc1C(=O)NNC(N)=S`, the inhibition of growth at 25 µM is 16%. Same read-out and setting: the value for `NC(=O)c1c(CNC(c2c[nH]cn2)C2CCNCC2)no[n+]1[O-]` (stereo not given) was 17%; that for `CN(C)CCCOc1no[n+]([O-])c1-c1ccccc1` was 0%. Regarding `Cc1c(CN(C)C)no[n+]1[O-]`, the inhibition of growth at 25 µM was 0%. For `Cc1ncc([N+](=O)[O-])n1CCNCc1no[n+]([O-])c1C(N)=O`, the inhibition of growth at 25 µM was found to be 10%. For the compound `O=S(=O)(CCO)c1nonc1-c1ccccc1`, the inhibition of growth at 25 µM came out at 17%. On the same count and under the same terms, the value for `Nc1c(-c2ccccc2)no[n+]1[O-]` was 39%; that for `Cc1ncc([N+](=O)[O-])n1CCNCc1nonc1C(N)=O` was 14%. As to `Cc1c(C(=O)NNC(N)=S)no[n+]1[O-]`, the inhibition of growth at 25 µM was 9%. The same measure, in the same setting: the value for `Cc1c(CN2CCC(Cc3c[nH]cn3)CC2)no[n+]1[O-]` was 4%. Still for that read-out and setting: the value for `Cc1nonc1-c1nc2ccccc2[nH]1` was 20%.

Another assay has as its system Trypanosoma cruzi. In words: Antitrypanosomal activity against Trypanosoma cruzi CL Brener assessed as parasite viability after 5 days by MTT assay. The class given is functional. The note with it: 120 h, read-out: ID50 (the source's name).
In the case of `NC(=O)CSc1c(-c2ccccc2)no[n+]1[O-]`, the IC50 is over 50 µM. `CC1CS(=O)(=O)CCN1/N=C/c1ccc([N+](=O)[O-])o1` (stereo not given) [NIFURTIMOX]: the IC50 came to 4.9 µM.
